For series [1], the target named is T1, DPPIV (Homo sapiens, UniProt P27487). As to conditions: longer time points. On the procedure:
The formulations described in Example 4 are placed in constant stability chamber. Peptides are also analyzed for stability to degradation in solutions of DPPIV and in plasma. Samples are removed periodically for analysis by capillary electrophoresis, mass spectrometry, Edman degradation, ELISA, and assays of peptide activity, which are sensitive methods to detect degradation of peptide. The area of various peaks is summed and the area for peak of the parent peptide is divided by the total peak area. The quotient is the % purity. Since there are impurities present in the fresh peptide, the purity change is normalized by dividing the purity at different time point by the initial purity. For stability to DPPIV and plasma, peptides at 20 pmol/μl were incubated at 37° C. in the presence of 300 pM DPPIV in 100 mM HEPES, pH 7.4. At various timepoints, the reaction (2 μl aliquot) is terminated by addition of 1 μM DPPIV inhibitor and freezing. For MALDI mass spectrometric analysis, T=0 hr, 1 hr, 5 hr, and 24 hr timepoints are evaluated. The results are plotted as percent intact peptide or peptide derivative as compared to degradation products.

Series [2] has as its target T1, DPPIV. Particulars: cited from earlier work.

T1 sequence (P27487 whole entry, species assumed): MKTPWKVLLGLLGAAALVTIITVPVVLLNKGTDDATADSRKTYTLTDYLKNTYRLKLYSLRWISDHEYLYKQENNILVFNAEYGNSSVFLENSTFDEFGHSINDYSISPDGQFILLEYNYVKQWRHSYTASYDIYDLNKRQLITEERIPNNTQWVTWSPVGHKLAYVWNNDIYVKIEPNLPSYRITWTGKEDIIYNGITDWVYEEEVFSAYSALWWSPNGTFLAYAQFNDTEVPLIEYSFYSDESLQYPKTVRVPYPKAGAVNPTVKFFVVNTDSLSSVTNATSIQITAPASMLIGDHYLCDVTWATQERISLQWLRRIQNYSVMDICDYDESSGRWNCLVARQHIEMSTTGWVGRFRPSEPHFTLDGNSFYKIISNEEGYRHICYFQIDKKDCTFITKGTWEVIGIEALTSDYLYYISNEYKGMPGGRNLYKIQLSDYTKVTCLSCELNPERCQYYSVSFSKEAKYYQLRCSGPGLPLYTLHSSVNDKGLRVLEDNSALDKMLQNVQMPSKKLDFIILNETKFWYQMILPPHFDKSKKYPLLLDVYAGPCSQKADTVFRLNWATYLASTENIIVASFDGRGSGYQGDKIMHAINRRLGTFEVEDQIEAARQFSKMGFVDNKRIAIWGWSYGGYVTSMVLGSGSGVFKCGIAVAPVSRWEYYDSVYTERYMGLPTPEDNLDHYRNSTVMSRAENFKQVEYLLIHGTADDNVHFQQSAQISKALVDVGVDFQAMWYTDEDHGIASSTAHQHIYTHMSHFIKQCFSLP

`CC[C@H](C)[C@H](NC(=O)[C@H](CO)NC(=O)[C@H](CC(N)=O)NC(=O)[C@H](CC(C)C)NC(=O)[C@H](Cc1ccc(O)cc1)NC(=O)[C@H](CCCCN)NC(=O)[C@H](CCCCN)NC(=O)[C@@H](NC(=O)[C@H](C)NC(=O)[C@H](CCSC)NC(=O)[C@H](CCC(N)=O)NC(=O)[C@H](CCCCN)NC(=O)[C@H](CCCN=C(N)N)NC(=O)[C@H](CC(C)C)NC(=O)[C@H](CCCN=C(N)N)NC(=O)[C@@H](NC(=O)[C@H](Cc1ccc(O)cc1)NC(=O)[C@H](CC(N)=O)NC(=O)[C@H](CC(=O)O)NC(=O)[C@@H](NC(=O)[C@H](Cc1ccccc1)NC(=O)[C@@H](NC(=O)[C@H](C)NC(=O)[C@H](CC(=O)O)NC(=O)[C@H](CO)NC(=O)[C@@H](N)Cc1c[nH]cn1)C(C)C)[C@@H](C)O)[C@@H](C)O)C(C)C)C(=O)N[C@@H](CC(C)C)C(=O)N[C@@H](CC(N)=O)C(N)=O` [VIP]: the “cleavage by DPPIV” value at DPPIV [1] was “cleaved at longer time points”. Moreover, the “cleavage by DPPIV as reported (Zhu, et al., J. Biol. Chem. 278: 22418-22423, 2003)” value on DPPIV [2] is reported as “resistant to cleavage”.
For `CC[C@H](C)[C@H](NC(=O)CNC(=O)[C@H](CC(=O)O)NC(=O)[C@H](CO)NC(=O)[C@@H](N)Cc1cnc[nH]1)C(=O)N[C@@H](Cc1ccccc1)C(=O)N[C@H](C(=O)N[C@@H](CC(=O)O)C(=O)N[C@@H](CO)C(=O)N[C@@H](Cc1ccc(O)cc1)C(=O)N[C@@H](CO)C(=O)N[C@@H](CCCNC(=N)N)C(=O)N[C@@H](Cc1ccc(O)cc1)C(=O)N[C@@H](CCCNC(=N)N)C(=O)N[C@@H](CCCCN)C(=O)N[C@@H](CCC(N)=O)C(=O)N[C@@H](CCSC)C(=O)N[C@@H](C)C(=O)N[C@H](C(=O)N[C@@H](CCCCN)C(=O)N[C@@H](CCCCN)C(=O)N[C@@H](Cc1ccc(O)cc1)C(=O)N[C@@H](CC(C)C)C(=O)N[C@@H](C)C(=O)N[C@@H](C)C(=O)N[C@H](C(=O)N[C@@H](CC(C)C)C(N)=O)C(C)C)C(C)C)[C@@H](C)O` [PACAP27], on DPPIV [1], the “cleavage by DPPIV” value is “cleaved at longer time points”. Moreover, the “cleavage by DPPIV as reported (Zhu, et al., J. Biol. Chem. 278: 22418-22423, 2003)” value on DPPIV [2] was “resistant to cleavage”.

The values above are taken from patent publication US20090280106A1, “Pituitary adenylate cyclase acivating peptide (pacap) receptor (vpac2) agonists and their pharmacological methods of use” (Bayer Pharmaceuticals Corporation, priority 2005, published 2009).
